What was measured:
[1] = system: HL60, K562, 3201 and H9 cells
Protocol: A commonly used anti-apogenic compound is zinc. HL60, K562, 3201 and H9 cells were exposed to 1, 2, 4, 7.9, 15.7, 31.3, 62.5, 125, 250, 500, and 1000 μM zinc sulfate and 6 μM CSarma VR5-BAP. The cells were cultured for 24 and 8 hours.

HL60 cells [2] = test: Sodium butyrate or retinoic acid with sub-apoptotic CSarma VR5-BAP in HL60 cells; format: cell-based, human; settings: 1 μM agent, 2, 3 and 5 days
Protocol: At 1 μM sodium butyrate and retinoic acid induce monocytic and granulocytic differentiation in HL60 cells, respectively. Neither the sodium butyrate nor retinoic acid is specifically associated with calcium transport. HL60 cells were simultaneously exposed to such […] dose (1 μM) of CSarma VR5-BAP and to either 1 μM sodium butyrate or 1 μM retinoic acid. Cells were cultured for 5 days and evaluated by inverted phase contrast microscopy and light microscopic examination of Wright-Giemsa-Stained cytrocentrifuge preparation. Samples were taken at 2, 3 and 5 days.

HL60 cell cultures = test: Heparin reversal of CSarma VR5-BAP effect in HL60 cells, MTT and INDO-1; format: cell-based, human
Protocol: HL60 cell cultures were treated with 6 μM CSarma VR5-BAP and 0.3 U/ml, or 3.0 U/ml heparin. Control cell cultures received either no polypeptide or 0.3 U/ml or 3.0 U/ml heparin. Cell growth was determined at 1 and 2 days as assessed by MTT cell proliferation/viability assay. The mobilization of intracellular calcium was assessed by INDO-1 staining and anchored cell fluorescent microscopy.

HL60 cells [3] = test: Augmentation by 1,25-dihydroxy vitamin D3 in HL60 cells, microscopy; format: cell-based, human; settings: simultaneous exposure
Protocol: At 1 μM, 1,25-dihydroxy vitamin D3 will drive differentiation of HL60 cells into monocytes; overt differentiation requires 72-96 hours. Accordingly, HL60 cell cultures were simultaneously exposed to a subapoptotic dose of 1 μM CSarma VR5-BAP and 0.5 or 1.0 μM 1, 25-dihydroxy vitamin D3. The cultures were then evaluated by inverted phase microscopy of tissue culture plates and by light microscopic examination of Wright-Giemsa stained cytocentrifuge preparations.

`O=S(=O)([O-])[O-].[Zn+2]` [zinc sulfate] was tested, and the “concentration with direct toxicity” value [1] was “greater than 31.3 μM” and the “reversal of CSarma VR5-BAP induced apoptosis” value ([1]; 1 to 1000 μM zinc sulfate with 6 μM CSarma VR5-BAP) was “failed to reverse”.

`CCCC(=O)[O-].[Na+]` [sodium butyrate] was tested, and the “apoptosis on simultaneous treatment with 1 μM CSarma VR5-BAP” value (HL60 cells [2]) was “did not cause apoptosis”.

heparin was tested, and the “mobilization of intracellular calcium” value (HL60 cell cultures; INDO-1 staining) was “prevents mobilization of intracellular calcium” and the “concentration inhibiting the growth suppression of 6 μM CSarma VR5-BAP” value (HL60 cell cultures; MTT, 1 and 2 days) was “greater than or equal to 0.3 U/ml”.

In the case of `C=C1/C(=C\C=C2/CCC[C@]3(C)[C@@H]([C@H](C)CCCC(C)(C)O)CC[C@@H]23)C[C@@H](O)C[C@@H]1O` [1,25-dihydroxy vitamin D3, 1,25-dihydroxycholecalciferol], the “increase of sensitivity of HL60 cells to CSarma VR5-BAP” value (HL60 cells [3]) is reported as “six-fold”.

For `CC1=C(/C=C/C(C)=C/C=C/C(C)=C/C(=O)O)C(C)(C)CCC1` [retinoic acid], the “apoptosis on simultaneous treatment with 1 μM CSarma VR5-BAP” value (HL60 cells [2]) was “did not cause apoptosis”.
